Measured values: article PMC3961306, “Comparison of the Cancer Gene Targeting and Biochemical Selectivities of All Targeted Kinase Inhibitors Approved for Clinical Use” (PLoS ONE, 2014)

What was measured:
Assay in all cases: Kinase profiling in a biochemical assay panel (mobility shift assays and ELISA), %-inhibition at 1 μM; selectivity entropy
[1] = target: panel of more than 300 wild-type and mutant kinases (313 kinase panel) (Homo sapiens, UniProt P48729)
[2] = target: panel of more than 300 wild-type and mutant kinases (313 kinase panel) (Homo sapiens, UniProt P11802)
[3] = target: panel of more than 300 wild-type and mutant kinases (313 kinase panel) (Homo sapiens, UniProt Q13164)
[4] = target: panel of more than 300 wild-type and mutant kinases (313 kinase panel) (Homo sapiens, UniProt P06493)
[5] = target: panel of more than 300 wild-type and mutant kinases (313 kinase panel) (Homo sapiens, UniProt Q13131)
[6] = target: panel of more than 300 wild-type and mutant kinases (313 kinase panel) (Homo sapiens, UniProt P07949)
[7] = target: T1, panel of more than 300 wild-type and mutant kinases (313 kinase panel) (Homo sapiens, UniProt Q16832)
T1 sequence (Q16832 22-855): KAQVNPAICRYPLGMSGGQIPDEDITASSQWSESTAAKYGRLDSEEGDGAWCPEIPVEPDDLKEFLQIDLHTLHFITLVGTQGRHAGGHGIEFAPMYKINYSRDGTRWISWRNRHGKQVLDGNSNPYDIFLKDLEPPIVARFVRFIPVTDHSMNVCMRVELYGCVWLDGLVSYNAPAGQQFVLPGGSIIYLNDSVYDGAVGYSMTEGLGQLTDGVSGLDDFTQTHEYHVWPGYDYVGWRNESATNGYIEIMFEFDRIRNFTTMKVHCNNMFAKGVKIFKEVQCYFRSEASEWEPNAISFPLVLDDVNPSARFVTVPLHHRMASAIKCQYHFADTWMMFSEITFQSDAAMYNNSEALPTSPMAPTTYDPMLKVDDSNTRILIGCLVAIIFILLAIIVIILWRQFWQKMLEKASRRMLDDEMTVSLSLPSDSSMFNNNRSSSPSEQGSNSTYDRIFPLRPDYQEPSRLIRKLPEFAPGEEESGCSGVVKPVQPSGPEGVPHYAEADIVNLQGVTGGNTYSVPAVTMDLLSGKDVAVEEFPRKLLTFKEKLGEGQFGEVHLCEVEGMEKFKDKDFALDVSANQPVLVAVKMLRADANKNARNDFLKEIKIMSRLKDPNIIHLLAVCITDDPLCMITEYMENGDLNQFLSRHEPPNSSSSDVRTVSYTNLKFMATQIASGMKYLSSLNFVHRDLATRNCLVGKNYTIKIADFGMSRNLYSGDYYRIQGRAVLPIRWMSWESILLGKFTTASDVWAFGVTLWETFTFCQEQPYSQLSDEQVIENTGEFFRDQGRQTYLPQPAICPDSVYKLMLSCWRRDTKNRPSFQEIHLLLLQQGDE

[8] = target: T2, panel of more than 300 wild-type and mutant kinases (313 kinase panel) (Homo sapiens, UniProt O15264)
T2 sequence (O15264 1-365): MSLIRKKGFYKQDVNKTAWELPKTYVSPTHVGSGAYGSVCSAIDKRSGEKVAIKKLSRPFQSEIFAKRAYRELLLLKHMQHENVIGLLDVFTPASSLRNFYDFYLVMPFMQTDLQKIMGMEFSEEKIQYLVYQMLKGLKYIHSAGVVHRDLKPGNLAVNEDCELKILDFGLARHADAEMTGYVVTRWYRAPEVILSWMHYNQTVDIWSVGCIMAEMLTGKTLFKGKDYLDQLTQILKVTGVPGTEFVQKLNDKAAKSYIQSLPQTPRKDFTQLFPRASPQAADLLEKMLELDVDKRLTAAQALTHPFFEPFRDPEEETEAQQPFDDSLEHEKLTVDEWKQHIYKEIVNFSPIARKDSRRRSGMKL

[9] = target: panel of more than 300 wild-type and mutant kinases (313 kinase panel) (Homo sapiens, UniProt P49840)
[10] = kinase CDK4/CycD3, 1 μM compound
[11] = kinase CDC2/CycB1, 1 μM compound
[12] = kinase AMPKα1/β1/γ1, 1 μM compound

panel of more than 300 wild-type and mutant kinases (313 kinase panel) (Homo sapiens, UniProt P07949), sequence (P07949 29-1114, change not shown): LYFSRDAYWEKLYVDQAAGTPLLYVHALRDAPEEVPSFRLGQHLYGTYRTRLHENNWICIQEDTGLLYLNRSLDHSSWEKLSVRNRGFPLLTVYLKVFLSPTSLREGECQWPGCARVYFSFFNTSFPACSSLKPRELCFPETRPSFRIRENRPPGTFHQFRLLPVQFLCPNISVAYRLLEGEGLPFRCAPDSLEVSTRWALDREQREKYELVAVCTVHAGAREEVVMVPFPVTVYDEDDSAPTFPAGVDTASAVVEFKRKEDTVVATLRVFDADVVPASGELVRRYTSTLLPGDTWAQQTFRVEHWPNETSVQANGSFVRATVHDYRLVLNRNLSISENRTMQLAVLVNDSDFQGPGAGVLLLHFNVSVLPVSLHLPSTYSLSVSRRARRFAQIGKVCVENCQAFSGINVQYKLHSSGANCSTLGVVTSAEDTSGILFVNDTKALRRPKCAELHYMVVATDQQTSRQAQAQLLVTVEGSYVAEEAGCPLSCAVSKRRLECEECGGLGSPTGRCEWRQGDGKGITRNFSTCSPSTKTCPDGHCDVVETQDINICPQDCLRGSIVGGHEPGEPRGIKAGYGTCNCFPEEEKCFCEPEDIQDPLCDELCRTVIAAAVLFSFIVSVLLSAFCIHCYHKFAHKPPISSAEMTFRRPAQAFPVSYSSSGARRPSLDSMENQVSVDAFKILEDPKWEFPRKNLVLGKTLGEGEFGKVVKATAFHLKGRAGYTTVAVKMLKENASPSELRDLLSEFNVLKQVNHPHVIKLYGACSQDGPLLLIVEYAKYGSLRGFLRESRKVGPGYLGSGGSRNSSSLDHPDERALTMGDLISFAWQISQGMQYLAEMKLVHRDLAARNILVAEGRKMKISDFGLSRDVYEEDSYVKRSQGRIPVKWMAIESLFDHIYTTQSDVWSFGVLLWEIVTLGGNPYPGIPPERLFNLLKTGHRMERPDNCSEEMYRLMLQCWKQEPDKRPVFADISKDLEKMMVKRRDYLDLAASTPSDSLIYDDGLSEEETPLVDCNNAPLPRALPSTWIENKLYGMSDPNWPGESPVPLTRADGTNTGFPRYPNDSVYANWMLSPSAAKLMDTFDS
panel of more than 300 wild-type and mutant kinases (313 kinase panel) (Homo sapiens, UniProt Q13131), sequence (Q13131 whole entry, change not shown): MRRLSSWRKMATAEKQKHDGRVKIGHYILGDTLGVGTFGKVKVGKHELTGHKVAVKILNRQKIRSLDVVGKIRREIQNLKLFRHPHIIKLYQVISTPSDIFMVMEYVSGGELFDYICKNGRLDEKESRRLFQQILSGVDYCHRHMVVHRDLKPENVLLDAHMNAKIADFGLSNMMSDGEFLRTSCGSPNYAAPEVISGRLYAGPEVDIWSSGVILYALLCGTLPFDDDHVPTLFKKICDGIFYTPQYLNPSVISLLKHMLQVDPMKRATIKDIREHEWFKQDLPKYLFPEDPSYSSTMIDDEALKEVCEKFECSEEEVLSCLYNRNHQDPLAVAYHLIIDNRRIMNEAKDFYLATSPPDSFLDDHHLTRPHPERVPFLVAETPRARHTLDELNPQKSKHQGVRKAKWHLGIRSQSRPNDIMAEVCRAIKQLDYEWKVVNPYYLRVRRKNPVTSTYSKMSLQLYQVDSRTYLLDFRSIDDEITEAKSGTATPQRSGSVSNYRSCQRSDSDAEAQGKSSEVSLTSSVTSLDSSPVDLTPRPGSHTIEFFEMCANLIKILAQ
panel of more than 300 wild-type and mutant kinases (313 kinase panel) (Homo sapiens, UniProt P11802), sequence (P11802 whole entry, change not shown): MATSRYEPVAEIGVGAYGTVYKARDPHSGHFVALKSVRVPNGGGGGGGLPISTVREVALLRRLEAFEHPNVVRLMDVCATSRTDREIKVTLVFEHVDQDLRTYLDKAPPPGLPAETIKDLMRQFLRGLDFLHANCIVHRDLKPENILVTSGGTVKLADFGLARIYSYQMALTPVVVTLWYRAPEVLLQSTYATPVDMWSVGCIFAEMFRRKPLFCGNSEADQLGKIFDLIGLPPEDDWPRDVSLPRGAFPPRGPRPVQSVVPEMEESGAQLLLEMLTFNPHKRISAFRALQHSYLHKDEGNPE

Row | Structure (SMILES) | %-inhibition, CK1α ([1]; kinase CK1α, 1 μM compound) [%] | %-inhibition, CDK4/CycD3 [2, 10] [%] | %-inhibition of Erk5 ([3]; kinase Erk5, compound at 1 μM) [%] | %-inhibition, CDC2/CycB1 [4, 11] [%] | %-inhibition, AMPKα1/β1/γ1 [5, 12] [%] | %-inhibition of RET ([6]; kinase RET, 1 μM) [%] | %-inhibition of DDR2 ([7]; kinase DDR2, compound at 1 μM) [%] | %-inhibition of p38δ ([8]; kinase p38δ, 1 μM) [%] | %-inhibition of GSK3α ([9]; 1 µM) [%] | %-inhibition of GSK3α ([9]; kinase GSK3α, compound at 1 μM) [%] | %-inhibition, CK1α ([1]; 1 µM) [%] | %-inhibition, CDK4/CycD3 ([2]; 1 µM) [%] | %-inhibition of p38δ ([8]; 1 µM) [%] | %-inhibition of Erk5 ([3]; 1 µM) [%] | %-inhibition, CDC2/CycB1 ([4]; 1 µM) [%] | %-inhibition, AMPKα1/β1/γ1 ([5]; 1 µM) [%] | %-inhibition of RET ([6]; 1 µM) [%] | %-inhibition of DDR2 ([7]; 1 µM) [%]
1 | Cc1ccc(C(=O)Nc2ccc(CN3CCN(C)CC3)c(C(F)(F)F)c2)cc1C#Cc1cnc2cccnn12 [ponatinib] | 8 | 24 | 3.45 | 33 | 46 | 102 | 101 |  |  |  |  |  |  |  |  |  |  | 
2 | CC(C)(C)c1nc(-c2cccc(NS(=O)(=O)c3c(F)cccc3F)c2F)c(-c2ccnc(N)n2)s1 [dabrafenib] | 13 |  | 0.144 |  |  | 49 | 100 | -3.43 |  |  |  |  |  |  |  |  |  | 
3 | COc1cc(Nc2c(C#N)cnc3cc(OCCCN4CCN(C)CC4)c(OC)cc23)c(Cl)cc1Cl [bosutinib] |  |  | 3.35 | -1.38 | 9 | 95 | 96 |  | 9 |  |  |  |  |  |  |  |  | 
4 | Cc1nc(Nc2ncc(C(=O)Nc3c(C)cccc3Cl)s2)cc(N2CCN(CCO)CC2)n1 [dasatinib] | -8.44 | 2.8 | 5 | 4.44 |  |  |  | 0.799 |  |  |  |  |  |  |  |  |  | 
5 | CO[C@H]1C[C@@H]2CC[C@@H](C)[C@@](O)(O2)C(=O)C(=O)N2CCCC[C@H]2C(=O)O[C@H]([C@H](C)C[C@@H]2CC[C@@H](OC(=O)C(C)(CO)CO)[C@H](OC)C2)CC(=O)[C@H](C)/C=C(\C)[C@@H](O)[C@@H](OC)C(=O)[C@H](C)C[C@H](C)/C=C/C=C/C=C/1C [temsirolimus] | -14 | -2.83 | -5 | -23 | -4.34 | -3 | -4 | -5.63 |  | -14 |  |  |  |  |  |  |  | 
6 | C#Cc1cccc(Nc2ncnc3cc(OCCOC)c(OCCOC)cc23)c1 [erlotinib] |  |  |  |  |  |  |  |  | -4 |  | 10 | 1.86 | 6 | 21 | 6 | 2 | 70 | 43
7 | CCCS(=O)(=O)Nc1ccc(F)c(C(=O)c2c[nH]c3ncc(-c4ccc(Cl)cc4)cc23)c1F [vemurafenib] | -4.34 | -3.26 | 0.709 | 10 | -1.59 | 32 | 69 | 8 |  | 25 |  |  |  |  |  |  |  | 
8 | N#CC[C@H](C1CCCC1)n1cc(-c2ncnc3[nH]ccc23)cn1 [ruxolitinib] | 1.86 | -1.74 | 6 | 0.106 | 2.17 |  | 49 | 0.0923 |  | 9 |  |  |  |  |  |  |  | 
9 | CC(=O)Nc1cccc(-n2c(=O)n(C3CC3)c(=O)c3c(Nc4ccc(I)cc4F)n(C)c(=O)c(C)c32)c1 [trametinib] | 3 | 5.62 | -2.55 | 8 | -12 | -8 | 0.612 | -2.7 | 1.59 |  |  |  |  |  |  |  |  | 
10 | COc1cc2c(Nc3ccc(Br)cc3F)ncnc2cc1OCC1CCN(C)CC1 [vandetanib] | -3.59 | -9 | 9 | -0.952 | 9 |  | 101 | 0.0923 |  | -5.37 |  |  |  |  |  |  |  | 
11 | CS(=O)(=O)CCNCc1ccc(-c2ccc3ncnc(Nc4ccc(OCc5cccc(F)c5)c(Cl)c4)c3c2)o1 [lapatinib] | 3.6 |  |  | 0.355 | -5 |  | 83 | 5.43 |  | -8 |  | 1.35 |  | -0.8 |  |  | -0.304 | 
12 | CO[C@H]1C[C@@H]2CC[C@@H](C)[C@@](O)(O2)C(=O)C(=O)N2CCCC[C@H]2C(=O)O[C@H]([C@H](C)C[C@@H]2CC[C@@H](OCCO)[C@H](OC)C2)CC(=O)[C@H](C)/C=C(\C)[C@@H](O)[C@@H](OC)C(=O)[C@H](C)C[C@H](C)/C=C/C=C/C=C/1C [everolimus] | -11 | -9 | -2.5 | -19 | -6 | -4 | 0 | -9 |  | -14 |  |  |  |  |  |  |  | 
13 | CCN(CC)CCNC(=O)c1c(C)[nH]c(/C=C2\C(=O)Nc3ccc(F)cc32)c1C [sunitinib] |  |  | 22 |  |  |  |  |  |  |  |  |  |  |  |  |  |  | 
14 | O=S(=O)(c1cccc2cnccc12)N1CCCNCC1 [fasudil] |  | -2.33 | -3.32 | 6.46 | -14 | -5 | 0.102 | -4.39 |  | 0.911 |  |  |  |  |  |  |  | 
15 | C[C@@H](Oc1cc(-c2cnn(C3CCNCC3)c2)cnc1N)c1c(Cl)ccc(F)c1Cl [crizotinib] | -1.36 | 7 | 45 | 19 | 16 |  | 88 | -3.41 |  | -2.56 |  |  |  |  |  |  |  | 
16 | Cc1ccc(Nc2nccc(N(C)c3ccc4c(C)n(C)nc4c3)n2)cc1S(N)(=O)=O [pazopanib] | -4 | 16 | 16 | 3 | -0.748 |  | 96 | -0.586 |  | 6.5 |  |  |  |  |  |  |  | 
17 | COc1cc2nccc(Oc3ccc(NC(=O)C4(C(=O)Nc5ccc(F)cc5)CC4)cc3)c2cc1OC [cabozantinib] | -9 | -5 | -2 | -17 | -1 |  | 99 | 47 |  | -10 |  |  |  |  |  |  |  | 
